Measured values reported in patent EP0785714B2, “ANTIMICROBIAL COMPOSITION” (Moberg, Sven, priority 1994, dated 1996).
Like-named read-outs stand apart in the source and are kept apart here.

Legend:
fungi and bacteria = details: in vitro, cited from earlier work; for antimicrobial effect on comparison: 30 % diol
Pityrosporum ovale = details: 50 % aqueous solution; cited from earlier work
Staphylococcus aureus [1] = test: MIC of propylene glycol alone and mixed with lactic acid; type: cell-based; details: propylene glycol (100%) alone
Text: (§1) The minimal inhibitory concentration (MIC) for propylene glycol (100%) tested on the bacterium Staphylococcus aureus and the dermophyte Tricophyton rubrum dropped from 8 % to 0.15 % and 0.38 % respectively if lactic acid was mixed with propylene glycol in the ratios 3:10 or 2:3. The composition gave a minimal inhibitory effect at concentration 0.25% and 0.5 % respectively. These MIC-values should be compared with the considerably higher MIC-values of 40 %, which were obtained when propylene glycol at 20 % was combined with aluminium acetotartrate (SE 8802257-9). […] Also other concentration ratios gave stronger but not optimum effect. The antimicrobial effects were not proportionate to the degree of acidity (pH).

Tricophyton rubrum = test: as above; type: cell-based; details: propylene glycol (100%) alone
Text: as §1

Pityrosporum orbiculare = test: MIC-plate determination (agar dilution), agent B2; type: cell-based; details: agent B2, Pityrosporum orbiculare (Pityrosporum ovale)
Method: (§2) A determination of the minimum inhibitory concentration (MIC) was carried out for different compositions of acid/glycol on different microorganisms.
(§3) The components included in the composition were weighed with decimal precision. A dilution series in sterile destilled water was made where the completed composition is dilution 1. Dilution 2 is 50 % of the composition, dilution 3 is 25 % etc. One thus gets a series of 100 - 50 - 25 - 12.5 - 6.3- 3.1 - 1.6 - 0.8 - 0.4 - 0.2 - 0.1 %. To said dilutions the same amount (volume) of Oxoids Isosensitest agar was added at 62.4 g medium per litre.
(§4) The Isosensitest agar is prepared and sterilized according to the maker's instructions. […] Furthermore a plate without the composition was prepared, called a blanc plate. From the different mixtures MIC-plates are moulded in sterile Petri dishes. From each agent a suspension was made corresponding to MacFarland 1. From this 0.2 ml was added to each MIC-plate and the blanc plate with a pipette. The MIC-plates were incubated in a thermostat having an optimum temperature for the agent. The MIC-value is the concentration of the composition on the MIC-plate where growth has stopped completely. Example. Agent 1 grows in 0.1 %, 0.2 %, 0.4 %, On the 0.8 %-plate the growth is weak but visible.

Aspergillus niger = test: MIC-plate determination (agar dilution), agents D1 and D2; type: cell-based; details: clinical isolate
Method: as §2, §3, §4

Pseudomonas aeruginosa = test: MIC-plate determination (agar dilution), agents G1 and G2; type: cell-based; details: clinical isolate
Method: as §2, §3, §4

Candica albicans = test: MIC-plate determination (agar dilution), agents A1 and A2; type: cell-based; details: clinical isolate
Method: as §2, §3, §4

[2] = pH in the various MIC plates; type: physicochemical
Method: as §3, §4

Malassezia furfur = test: MIC-plate determination (agar dilution), agent B1; type: cell-based; details: agent B1, Malassezia furfur (Pityrosporum ovale)
Method: as §2, §3, §4

Staphylococcus aureus [3] = test: MIC-plate determination (agar dilution), agents E1 and E2; type: cell-based; details: clinical isolate
Method: as §2, §3, §4

Streptococcus pyogenes = test: MIC-plate determination (agar dilution), agents F1 and F2; type: cell-based; details: clinical isolate
Method: as §2, §3, §4

Trichophyton rubrum = test: MIC-plate determination (agar dilution), agents C1 and C2; type: cell-based; details: clinical isolate
Method: as §2, §3, §4

Molecule: CC(O)CO (stereo not drawn) [Composition 1, Propylene glycol]
- antimicrobial effect on comparison (fungi and bacteria): about as effective as 10 % hexylene glycol
- effect against Pityriasis versicolor (Pityrosporum ovale): effective
- minimal inhibitory concentration (MIC) for propylene glycol (Staphylococcus aureus [1]): 8%
- minimal inhibitory concentration (MIC) for propylene glycol (Tricophyton rubrum): 8%

Molecule: OCCCCO [Composition 2, Butylene glycol]
- antimicrobial effect on comparison (fungi and bacteria): about as effective as 10 % hexylene glycol

Molecule: CC(O)CC(C)(C)O (stereo not drawn) [Composition 3]
- MIC-value (Pityrosporum orbiculare): 25%
- MIC-value (Aspergillus niger; agent D1, Aspergillus niger): 6.3%
- MIC-value (Aspergillus niger; agent D2, Aspergillus niger): 6.3%
- MIC-value (Pseudomonas aeruginosa; agent G1, Pseudomonas aeruginosa): 1.6%
- MIC-value (Pseudomonas aeruginosa; agent G2, Pseudomonas aeruginosa): 3.1%
- MIC-value (Candica albicans; agent A1, Candica albicans): 6.3%
- MIC-value (Candica albicans; agent A2, Candica albicans): 6.3%
- pH in the MIC plate ([2]; MIC-plate 0.05 (% composition in Isosensitest agar)): 7
- pH in the MIC plate ([2]; MIC-plate 0.1 (% composition in Isosensitest agar)): 7
- pH in the MIC plate ([2]; MIC-plate 0.2 (% composition in Isosensitest agar)): 7
- pH in the MIC plate ([2]; MIC-plate 0.4 (% composition in Isosensitest agar)): 7
- pH in the MIC plate ([2]; MIC-plate 0.8 (% composition in Isosensitest agar)): 7
- pH in the MIC plate ([2]; MIC-plate 1.6 (% composition in Isosensitest agar)): 7
- pH in the MIC plate ([2]; MIC-plate 3.1 (% composition in Isosensitest agar)): 7
- pH in the MIC plate ([2]; MIC-plate 6.3 (% composition in Isosensitest agar)): 7
- pH in the MIC plate ([2]; MIC-plate 12.5 (% composition in Isosensitest agar)): 7
- pH in the MIC plate ([2]; MIC-plate 25 (% composition in Isosensitest agar)): 7
- pH in the MIC plate ([2]; MIC-plate 50 (% composition in Isosensitest agar)): 7
- MIC-value (Malassezia furfur): 25%
- MIC-value (Staphylococcus aureus [3]; agent E1, Staphylococcus aureus): 12.5%
- MIC-value (Staphylococcus aureus [3]; agent E2, Staphylococcus aureus): 12.5%
- MIC-value (Streptococcus pyogenes; agent F1, Streptococcus pyogenes): 12.5%
- MIC-value (Streptococcus pyogenes; agent F2, Streptococcus pyogenes): 12.5%
- MIC-value (Trichophyton rubrum; agent C1, Trichophyton rubrum): 0.8%
- MIC-value (Trichophyton rubrum; agent C2, Trichophyton rubrum): 0.8%

Molecule: Hexylene glycol [Composition 3]
- antimicrobial effect (fungi and bacteria; 1 % of the agent): lacked effect
- antimicrobial effect (fungi and bacteria; 5 % hexylene glycol): a certain antimicrobial effect
- antimicrobial effect (fungi and bacteria; 10-30 % hexylene glycol): showed antimicrobial effect within 20 hours
